Measurements taken from paper PMC5038265 (Antimicrobial Agents and Chemotherapy, 2016).
In brackets after ≈: the same amount, converted by molar mass. Like-named read-outs stand apart in the source and are kept apart here.

Columns and labels:
[1] = test system: SDHA in HepG2 cells; assay: Mitochondrial protein synthesis assay, SDHA level; format: cell-based; conditions: Homo sapiens, 168 h; HepG2, 7 days; read-out: Mean EC50 ± SD SDHA
Protocol: (§1) The human liver carcinoma-derived HepG2 cell line was obtained from the ATCC (ATCC HB-8065). HepG2 cells were grown in Dulbecco's modified Eagle's medium containing 10% fetal calf serum, 1 mM sodium pyruvate, 0.1 mM essential amino acids, and 50 U/ml penicillin-streptomycin at 37°C with 5% CO2. HepG2 cells were seeded into 96-well plates at 3,000 cells/200 μl/well in cell culture medium. Cells were then grown in the presence of the compounds at 37°C in 10% CO2 for 7 days in at least duplicate concentrations, with the medium and compounds being replaced on the fourth day. After 7 days, the levels of SDHA (subunit A of the succinate dehydrogenase complex) and COX1 (cytochrome c oxidase) were determined by using the MitoSciences In-Cell enzyme-linked immunosorbent assay (ELISA) kit. Janus green staining was used to determined cell viability after 7 days (In-Cell ELISA kit, catalog number MS643).

[2] = test system: COX1 in HepG2 cells; assay: Mitochondrial protein synthesis assay, COX1 level; format: cell-based; conditions: Homo sapiens, 168 h; HepG2, 7 days; read-out: Mean EC50 ± SD COX1
Protocol: as §1

[3] = test system: HepG2 cells; assay: HepG2 cell viability (Janus green staining); format: cell-based; conditions: Homo sapiens, 168 h, HepG2, 7 days, read-out: Mean EC50 ± SD Cell viability
Protocol: as §1

[4] = test system: Vero cells; assay: In vitro cytotoxicity assay (MTT); format: cell-based, African green monkey; conditions: Chlorocebus sabaeus, 72 h
Protocol: Vero epithelial cells (from African green monkey; ATCC CCL-81) were cultured in Dulbecco's modified Eagle's medium (DMEM) supplemented with 10% fetal bovine serum (FBS) and maintained in a humidified incubator (37°C in 5% CO2). Cells were dislodged with a cell scraper, collected by centrifugation, resuspended in fresh medium at ∼10^6 cells/ml, dispensed into 96-well microtiter plates ([…]), and incubated for 18 h at 37°C. Twofold serial dilutions of test compounds in DMEM with FBS were subsequently added, and cells were incubated for another 72 h. In triplicate studies, the cytopathic effects of compounds were evaluated colorimetrically by using the 3-(4,5-dimethyl-2-thiazolyl)-2,5-diphenyl-2H-tetrazolium bromide (MTT) cell proliferation assay (ATCC). IC50 data were obtained from dose-response curves plotted by using GraphPad Prism 5.

[5] = test system: M. tuberculosis H37Rv; assay: MIC for M. tuberculosis H37Rv (resazurin/alamarBlue); format: cell-based, Mycobacterium tuberculosis; conditions: for MIC: Mycobacterium tuberculosis, H37RV, read-out: MIC M.tb H37Rv; for improvement of MIC values over compound 1: M. tuberculosis H37Rv
[6] = biological target: M. tuberculosis LeuRS (Mycobacterium tuberculosis, UniProt P9WFV1); assay: biochemical; parameters: species or system M. tuberculosis H37Rv
M. tuberculosis LeuRS, sequence (P9WFV1 whole entry): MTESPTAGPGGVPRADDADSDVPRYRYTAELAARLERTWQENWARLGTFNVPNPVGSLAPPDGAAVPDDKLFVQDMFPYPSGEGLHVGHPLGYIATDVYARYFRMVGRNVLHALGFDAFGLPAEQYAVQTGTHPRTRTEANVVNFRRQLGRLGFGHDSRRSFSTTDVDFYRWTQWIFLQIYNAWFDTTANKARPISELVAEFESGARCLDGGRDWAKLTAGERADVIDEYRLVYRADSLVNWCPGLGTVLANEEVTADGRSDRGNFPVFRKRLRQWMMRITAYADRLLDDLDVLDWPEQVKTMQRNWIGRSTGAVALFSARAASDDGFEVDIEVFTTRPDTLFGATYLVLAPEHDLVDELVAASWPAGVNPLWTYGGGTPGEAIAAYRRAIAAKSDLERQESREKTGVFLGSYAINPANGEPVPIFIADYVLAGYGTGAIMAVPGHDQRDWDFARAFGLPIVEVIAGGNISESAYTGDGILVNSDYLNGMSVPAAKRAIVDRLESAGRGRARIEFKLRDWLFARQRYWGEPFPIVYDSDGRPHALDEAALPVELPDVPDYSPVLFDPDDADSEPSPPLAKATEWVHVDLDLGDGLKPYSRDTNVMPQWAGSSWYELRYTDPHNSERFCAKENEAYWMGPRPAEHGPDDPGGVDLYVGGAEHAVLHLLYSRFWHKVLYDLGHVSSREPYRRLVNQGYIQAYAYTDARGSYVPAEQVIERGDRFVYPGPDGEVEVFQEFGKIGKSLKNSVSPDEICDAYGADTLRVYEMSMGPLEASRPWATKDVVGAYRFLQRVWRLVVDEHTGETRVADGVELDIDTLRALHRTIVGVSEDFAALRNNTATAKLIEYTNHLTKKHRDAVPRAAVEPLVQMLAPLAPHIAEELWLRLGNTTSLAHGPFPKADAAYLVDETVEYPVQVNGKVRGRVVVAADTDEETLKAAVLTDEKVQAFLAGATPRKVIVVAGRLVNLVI

Row | SMILES | EC50 [4] [µM] | MIC [5] [µg/mL] | IC50 ([6]; read-out: IC50 M.tb LeuRS) [µM] | other results
1 | C[C@H]1c2cccc(O)c2C(=O)C2=C(O)[C@]3(O)C(=O)C(C(N)=O)=C(O)[C@@H](N(C)C)[C@@H]3[C@@H](O)[C@@H]21 [Doxycycline, doxycycline] | – | – | – | EC50 [1]: 109 ± 29 µM; EC50 [2]: 23.7 ± 6.4 µM; EC50 [3]: 118 ± 35.5 µM
2 | CCOc1ccc(CC)c2c1B(O)OC2CN (stereo not shown) [Compound 9] | > 50 | 0.29 (≈ 1.23 µM) | 0.31 | –
3 | OB1OCc2ccccc21 [AN2679] | – | 7.5 (≈ 56 µM) | 21.3 | –
4 | CCOc1cccc2c1B(O)O[C@H]2CN [Compound 3] | > 50 | – | 21 | –
5 | CC[C@H]1OC(=O)[C@H](C)[C@@H](O[C@H]2C[C@@](C)(OC)[C@@H](O)[C@H](C)O2)[C@H](C)[C@@H](O[C@@H]2O[C@H](C)C[C@H](N(C)C)[C@H]2O)[C@](C)(O)C[C@@H](C)C(=O)[C@H](C)[C@@H](O)[C@]1(C)O [Erythromycin, erythromycin] | – | – | – | EC50 [1]: > 150 µM; EC50 [2]: > 150 µM; EC50 [3]: > 150 µM
6 | CCOc1ccc(C)c2c1B(O)OC2CN (stereo not shown) [Compound 8] | > 50 | 0.04 (≈ 0.181 µM) | 0.2 | –
7 | NCC1OB(O)c2ccccc21 (stereo not shown) [AN3017] | – | 1.8 (≈ 11 µM) | 0.64 | –
8 | OCCCOc1cccc2c1B(O)OC2 [AN3016] | – | 1 (≈ 4.81 µM) | 3.5 | MIC M.tb H37Rv [5]: 1.0 µg/mL (≈ 4.81 µM)
9 | CCOc1ccc(Cl)c2c1B(O)OC2CN (stereo not shown) [Compound 4] | > 50 | 0.04 (≈ 0.166 µM) | – | improvement of MIC values over compound 1 [5]: more than 5 fold; IC50 [6]: 0.09 µM
10 | CCOc1ccc(F)c2c1B(O)OC2CN (stereo not shown) [Compound 6] | > 50 | 0.05 (≈ 0.222 µM) | 0.11 | improvement of MIC values over compound 1 [5]: more than 5 fold
11 | O=C(N[C@H](CO)[C@H](O)c1ccc([N+](=O)[O-])cc1)C(Cl)Cl [Chloramphenicol, chloramphenicol] | – | – | – | EC50 [1]: > 150 µM; EC50 [2]: 31.4 ± 23.2 µM; EC50 [3]: 110 ± 14.1 µM
12 | CCOc1c(F)ccc2c1B(O)OC2CN (stereo not shown) [Compound 7] | > 50 | > 1.1 | 0.56 | MIC M.tb H37Rv [5]: ≥ 1.1 µg/mL
13 | CCOc1ccc(-c2ccccc2)c2c1B(O)OC2CN.Cl (stereo not shown) [Compound 10, 3-(Aminomethyl)-7-ethoxy-4-phenylbenzo[c][1,2]oxaborol-1(3H)-ol hydrochloride] | > 50 | 17 | 28 | –
14 | CCOc1cc(Cl)cc2c1B(O)OC2CN (stereo not shown) [Compound 5] | 43 | 1.2 (≈ 4.97 µM) | 0.38 | MIC M.tb H37Rv [5]: ≥ 1.1 µg/mL
